{"source": "patent US8648089B2", "about": "“1,3,6-substituted indole derivatives having inhibitory activity for protein kinase” (Korea Institute of Science and Technology, priority 2009, dated 2014)", "data": [{"target": "B-Raf-V600E kinase (Homo sapiens, UniProt P15056, V600E)", "sequence (P15056 whole entry V600E)": "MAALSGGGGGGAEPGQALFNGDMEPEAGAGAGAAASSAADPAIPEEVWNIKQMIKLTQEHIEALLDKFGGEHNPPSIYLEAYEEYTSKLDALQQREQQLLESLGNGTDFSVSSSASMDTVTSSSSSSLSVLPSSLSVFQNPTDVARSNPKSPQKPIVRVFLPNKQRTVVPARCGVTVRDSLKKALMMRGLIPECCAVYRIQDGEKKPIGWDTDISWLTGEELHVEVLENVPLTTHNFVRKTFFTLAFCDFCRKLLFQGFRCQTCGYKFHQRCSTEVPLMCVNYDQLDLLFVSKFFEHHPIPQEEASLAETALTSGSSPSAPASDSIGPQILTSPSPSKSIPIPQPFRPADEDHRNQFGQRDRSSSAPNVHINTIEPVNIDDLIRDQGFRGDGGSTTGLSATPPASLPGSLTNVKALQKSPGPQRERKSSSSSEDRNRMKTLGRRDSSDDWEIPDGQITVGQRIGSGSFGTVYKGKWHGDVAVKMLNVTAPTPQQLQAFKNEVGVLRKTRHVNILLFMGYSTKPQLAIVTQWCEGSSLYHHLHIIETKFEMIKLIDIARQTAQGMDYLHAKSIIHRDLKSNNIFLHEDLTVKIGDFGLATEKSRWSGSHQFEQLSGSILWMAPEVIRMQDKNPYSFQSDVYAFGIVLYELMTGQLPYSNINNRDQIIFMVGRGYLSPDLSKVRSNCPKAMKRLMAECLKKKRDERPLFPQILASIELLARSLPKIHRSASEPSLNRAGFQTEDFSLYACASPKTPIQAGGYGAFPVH", "assay": "B-Raf kinase activity (kinase cascade assay)", "assay_type": "biochemical", "details": "MEK1/Erk2/MBP, [γ-32P] ATP, read-out: B-Raf-V600E kinase inhibitory activity (IC50)", "protocol": "Measurement of B-Raf Kinase Activity (Kinase Cascade Assay)\n(1) Activation of MAP Kinase 2/Erk2 by B-Raf\nMagnesium/ATP solution (500 μM ATP, 75 mM magnesium chloride) was prepared (10 μL). Diluted B-Raf-V600E enzyme (2.5 μL) was added at a final concentration of 1 ng/mL. and inactivated MEK1 (1.6 μL) was added at a final concentration of 0.4 μg/mL. Then, inactivated MAP Kinase 2/Erk2 (4 μL) was added at a final concentration of 1.0 μg/mL. The test compound was prepared at a concentration of 10 mM in dimethylsulfoxide (DMSO) and diluted to various concentrations (DMSO 2.6%). The final volume was adjusted to 38 μL by adding Assay Dilution Butter I (ADBI) and the mixture was allowed to react at 30° C. for 30 minutes. 5 μL of the mixture solution was taken to perform the next process.\n(2) Phosphorylation of Myelin Basic Protein (MBP)\nThe mixture solution (5 μL) was treated with assay dilution buffer (10 μL) and then with myelin basic protein (MBP, 2 mg/mL, 10 μL). [γ-32P] ATP (100 μCi/container) diluted to 1/10 was added in 10 μL aliquots. After reaction at 30° C. for […] and then placing P81 paper in a scintillation vial, spotting was performed slowly using 25 μL of the reaction mixture. After washing 4 times with 0.75% phosphoric acid for 10 minutes and washing once with acetone for 5 minutes, 5 mL of scintillation cocktail was added to the scintillation vial. Signals were recorded using a scintillation counter.", "units": {"IC50": "µM"}, "values": [{"molecule": "4-(6-(4-methoxyphenyl)-1-(6-(methylamino)pyrimidin-4-yl)-1H-indol-3-yl)benzoate [Example 30]", "IC50": "< 10"}, {"molecule": "CC(=O)Nc1cccc(-c2ccc3c(-c4ccc(OCCN(C)C)cc4)cn(-c4ccncc4)c3c2)c1", "note": "[Example 25, N-(3-(3-(4-(2-(dimethylamino)ethoxy)phenyl)-1-(pyridin-4-yl)-1H-indol-6-yl)phenyl)acetamide]", "IC50": "< 10"}, {"molecule": "CNc1cc(-n2cc(-c3cccc(N)c3)c3ccc(-c4ccc(OC)cc4)cc32)ncn1", "note": "[Example 27, 6-(3-(3-aminophenyl)-6-(4-methoxyphenyl)-1H-indol-1-yl)-N-methylpyrimidin-4-amine]", "IC50": "< 10"}, {"molecule": "CNc1cc(-n2cc(-c3ccc(OC)cc3)c3ccc(-c4cccc(NC(=O)Nc5ccccc5OC)c4)cc32)ncn1", "note": "[Example 39, 1-(2-methoxyphenyl)-3-(3-(3-(4-methoxyphenyl)-1-(6-(methylamino)pyrimidin-4-yl)-1H-indol-6-yl)phenyl)urea]", "IC50": "< 10"}]}, {"test_system": "A375P cells", "assay": "Inhibitory activity against proliferation of A375P melanoma cells (MTT assay)", "assay_type": "cell-based", "details": "A375P human melanoma cells with B-Raf-V600E", "protocol": "Measurement of Inhibitory Activity Against Proliferation of A375P Melanoma Cells\nA375P cells purchased from ATCC were cultured in DMEM [10% FBS, 1% penicillin/streptomycin] at 37° C. in the presence of 5% CO2. The cultured A375P cells were harvested with 0.05% trypsin-0.02% EDTA and seeded in a 96-well plate at 5×10^3 cells per well.\n3-(4,5-Dimethylthiazol-2-yl)-2,5-diphenyltetrazolium bromide (MTT) assay (CellTiter 96 Assay, Promega) was employed to measure cell viability. After adding 15 μL of a dye per well and culturing for 2 hours, the cells were treated with 100 μL of a stop solution and absorbance was measured 24 hours later. The test compound was treated a day after plating. The test compound had been sequentially diluted at 12 concentrations from a 10 mM stock solution using sterilized dimethylsulfoxide (DMSO) and treated with an amount of 0.5 μL. Absorbance at 590 nm was recorded using EnVision2103, and GI50 value was calculated using GraphPad Prism 4.0 software.\nThe inhibitory activity against proliferation of the A375P cells of some typical compounds according to the present invention is given in Table 2.", "units": {"GI50": "µM"}, "values": [{"molecule": "4-(6-(4-methoxyphenyl)-1-(6-(methylamino)pyrimidin-4-yl)-1H-indol-3-yl)benzoate [Example 30]", "GI50": "< 10"}, {"molecule": "O=[N+]([O-])c1cccc(-c2ccc3c(Br)cn(-c4cc(Cl)ncn4)c3c2)c1", "note": "[Example 9, 3-bromo-1-(6-chloropyrimidin-4-yl)-6-(3-nitrophenyl)-1H-indole]", "GI50": "< 10"}, {"molecule": "COc1ccc(-c2cn(-c3ccncc3)c3cc(N4CCN(C(=O)OC(C)(C)C)CC4)ccc23)cc1", "note": "[Example 13, tert-butyl 4-(3-(4-methoxyphenyl)-1-(pyridin-4-yl)-1H-indol-6-yl)piperazine-1-carboxylate]", "GI50": "< 10"}, {"molecule": "COc1ccc(-c2cn(-c3ccncc3)c3cc(N4CCNCC4)ccc23)cc1", "note": "[Example 14, 3-(4-methoxyphenyl)-6-(piperazin-1-yl)-1-(pyridin-4-yl)-1H-indole]", "GI50": "< 10"}, {"molecule": "CNc1cc(-n2cc(-c3cccc([N+](=O)[O-])c3)c3ccc(-c4ccc(OC)cc4)cc32)ncn1", "note": "[Example 26, 6-(6-(4-methoxyphenyl)-3-(3-nitrophenyl)-1H-indol-1-yl)-N-methylpyrimidin-4-amine]", "GI50": "< 10"}, {"molecule": "CNc1cc(-n2cc(-c3cccc(N)c3)c3ccc(-c4ccc(OC)cc4)cc32)ncn1", "note": "[Example 27, 6-(3-(3-aminophenyl)-6-(4-methoxyphenyl)-1H-indol-1-yl)-N-methylpyrimidin-4-amine]", "GI50": "< 10"}, {"molecule": "CNc1cc(-n2cc(-c3cccc(NC(C)=O)c3)c3ccc(-c4ccc(OC)cc4)cc32)ncn1", "note": "[Example 28, N-(3-(6-(4-methoxyphenyl)-1-(6-(methylamino)pyrimidin-4-yl)-1H-indol-3-yl)phenyl)acetamide]", "GI50": "< 10"}, {"molecule": "CNc1cc(-n2cc(-c3ccc(C(=O)NCCN4CCOCC4)cc3)c3ccc(-c4ccc(OC)cc4)cc32)ncn1", "note": "[Example 31, 4-(6-(4-methoxyphenyl)-1-(6-(methylamino)pyrimidin-4-yl)-1H-indol-3-yl)-N-(2-morpholinoethyl)benzamide]", "GI50": "< 10"}, {"molecule": "COc1ccc(-c2cn(-c3ccnc([S+](C)[O-])n3)c3cc(-c4cccc([N+](=O)[O-])c4)ccc23)cc1", "note": "(stereo not drawn) [Example 33, 3-(4-methoxyphenyl)-1-(2-(methylsulfinyl)pyrimidin-4-yl)-6-(3-nitrophenyl)-1H-indole]", "GI50": "< 10"}, {"molecule": "CNc1cc(-n2cc(-c3ccc(OC)cc3)c3ccc(-c4cccc(NC(=O)Nc5ccc(Cl)c(C(F)(F)F)c5)c4)cc32)ncn1", "note": "[Example 37, 1-(4-chloro-3-(trifluoromethyl)phenyl)-3-(3-(3-(4-methoxyphenyl)-1-(6-(methylamino)pyrimidin-4-yl)-1H-indol-6-yl)phenyl)urea]", "GI50": "< 10"}, {"molecule": "CNc1cc(-n2cc(-c3ccc(OC)cc3)c3ccc(-c4cccc(NC(=O)Nc5ccccc5OC)c4)cc32)ncn1", "note": "[Example 39, 1-(2-methoxyphenyl)-3-(3-(3-(4-methoxyphenyl)-1-(6-(methylamino)pyrimidin-4-yl)-1H-indol-6-yl)phenyl)urea]", "GI50": "< 10"}, {"molecule": "CNc1cc(-n2cc(-c3cccc(NC(=O)Nc4ccc(Cl)c(C(F)(F)F)c4)c3)c3ccc(-c4ccc(OC)cc4)cc32)ncn1", "note": "[Example 45, 1-(4-chloro-3-(trifluoromethyl)phenyl)-3-(3-(6-(4-methoxyphenyl)-1-(6-(methylamino)pyrimidin-4-yl)-1H-indol-3-yl)phenyl)urea]", "GI50": "< 10"}]}, {"test_system": "A375 melanoma cells", "assay": "not given", "details": "read-out: proliferation of A375 melanoma cells IC50; cited from earlier work", "units": {"IC50": "µM"}, "values": [{"molecule": "CCCS(=O)(=O)Nc1ccc(F)c(C(=O)c2c[nH]c3ncc(Cl)cc23)c1F", "note": "[PLX4720]", "IC50": 0.5}]}, {"test_system": "not given", "assay": "not given", "details": "600 mg twice a day, clinical; cited from earlier work", "values": [{"molecule": "CNC(=O)c1cc(Oc2ccc(NC(=O)Nc3ccc(Cl)c(C(F)(F)F)c3)cc2)ccn1", "note": "[sorafenib, Sorafenib]", "skin toxicity on administration": "grade 3 skin toxicity"}]}]}
